Measured values: patent publication EP2408450B1, “ALPHA-(N-SULFONAMIDO)ACETAMIDE COMPOUND AS AN INHIBITOR OF BETA AMYLOID PEPTIDE PRODUCTION” (Bristol-Myers Squibb Company, priority 2009, dated 2010)
Marks after values point to notes of the source that are not given here.

Assays:
[1] = molecular target: T1, human pregnane-X receptor (Homo sapiens, UniProt O75469); assay: PXR transactivation assay (CYP3A-Luc reporter in HepG2 cells); format: cell-based; conditions: hPXR transactivation assay
T1 construct: expressed in transfected cells; host or cells: HepG2 cells, transiently transfected with PXR-pcDNA3 and CYP3A-Luc
T1 sequence (O75469 1-434): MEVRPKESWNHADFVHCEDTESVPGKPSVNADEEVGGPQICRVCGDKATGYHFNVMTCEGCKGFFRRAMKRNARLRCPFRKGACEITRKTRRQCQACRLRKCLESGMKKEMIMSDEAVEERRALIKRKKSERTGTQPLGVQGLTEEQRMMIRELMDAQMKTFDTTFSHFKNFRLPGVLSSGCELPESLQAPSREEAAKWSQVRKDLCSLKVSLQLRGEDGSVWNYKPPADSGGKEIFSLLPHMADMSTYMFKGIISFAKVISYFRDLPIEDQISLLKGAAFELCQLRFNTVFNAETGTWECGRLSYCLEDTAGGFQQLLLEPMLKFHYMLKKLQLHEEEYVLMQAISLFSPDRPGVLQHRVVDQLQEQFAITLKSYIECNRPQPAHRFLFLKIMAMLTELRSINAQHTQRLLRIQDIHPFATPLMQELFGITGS
Source text: Pregnane X receptor (PXR) is a nuclear hormone receptor principally responsible for the induction of cytochrome P450 (CYP) 3A4, which plays a major role in metabolizing many clinically prescribed drugs. It is well known that the induction of CYP3A4 can cause either drug-drug interaction by increasing the metabolic clearance of co-administered CYP3A4 substrates (Bertilsson, G. et al., Proc. Nat. Acad. Sci. USA, 95:12208-12213 (1998); Lehmann, J.M. et al., J. Clin. Invest., 102:1016-1023 (1998)) or can cause loss of drug exposure due to autoinduction. Characterizing the induction potential of discovery or development drug candidates has become an important screen throughout the pharmaceutical industry. […]
Cells in each flask are washed with PBS and 4 mL of Trypsin-EDTA (0.25%) is added and incubated for one minute at room temperature. […] Cells are then counted and diluted in media to 3.0 x 10^5 cells/mL. […] After fifteen minutes, plates are read on a Viewlux (Perkin-Elmer) plate reader.
Rifampicin (10 µM), a well known agonist of PXR, is included in each plate as an internal standard and positive control. The data was then expressed as percent activation (%Act), where the total signal is the signal from the 10 µM rifampicin and the blank signal is that from the DMSO vehicle. %Act = (Compound signal-Blank signal)/(Toal signal-Blank signal) × 100% [formula] […]

proximal duodenum = assay: Histopathology of the proximal duodenum (GI toxicity) in rats; format: in vivo, rat; conditions: for Day 4 GI Tox: 4 days; for Day 7 GI Tox: 7 days; for GI Tox: 4-day
Method: Female Harlan Sprague-Dawley rats (∼200 - 250 g) were dosed daily by oral gavage with a dosing vehicle of 99% PEG-400, 1% Tween-80 at 4 mL/kg in the morning. […] All procedures were done in concordance with ACUC guidelines. […] Plasma was obtained after centrifugation. […] CSF samples were centrifuged to remove cells or debris prior to dilution at 1:2 in 4% BSA and frozen for subsequent analysis.
Following euthanasia by CO2 asphyxiation, approximately 3 cm long sections of the proximal duodenum were removed from the abdomen, rinsed with ice cold Phosphate buffered saline and placed into 10% buffered formalin prior to sectioning. Tissue sections of the duodenum were embedded in liquid paraffin, mounted onto blocks, and cut into triplicate sagittal (cross-luminal) ring sections and stained using the Periodic acid Schiff's base method prior to microscopic evaluation. All animals survived until scheduled necropsy was performed.

SMILES: NC(=O)[C@@H](CCC(F)(F)F)N(Cc1ccc(-c2ncon2)cc1F)S(=O)(=O)c1ccc(Cl)cc1 [(2R)-2-[[(4-chlorophenyl)sulfonyl][[2-fluoro-4-(1,2,4-oxadiazol-3-yl)phenyl]methyl]amino]-5,5,5-trifluoropentanamide]
- EC20A (20% of the Rifampicin response at 10 µM) [1]: 6.9 µM
- EC60A (60% of the Rifampicin response at 10 µM) [1]: greater than 16.7 µM
- rats with mild lesions in duodenal tissue (histological evaluation) (proximal duodenum; 100 mg/kg/day, 4-day rat study): 1/3
- Day 4 GI Tox (proximal duodenum; Rat Study No. 3, 30 mg/kg/day): NAD
- Day 7 GI Tox (proximal duodenum; Rat Study No. 3, 30 mg/kg/day): NAD
- Day 4 GI Tox (proximal duodenum; Rat Study No. 3, 300 mg/kg/day): +^b
- Day 7 GI Tox (proximal duodenum; Rat Study No. 3, 300 mg/kg/day): NAD
- dose needed to induce GI toxicity (proximal duodenum; female, Harlan Sprague-Dawley, rat, in vivo): 100 mg/kg/day
- GI Tox (proximal duodenum; rat, Study No. 2, 3 mg/kg/day): NAD
- GI Tox (proximal duodenum; rat, Study No. 2, 10 mg/kg/day): NAD
- GI Tox (proximal duodenum; rat, Study No. 2, 30 mg/kg/day): NAD
- GI Tox (proximal duodenum; rat, Study No. 2, 100 mg/kg/day): +^e
- GI Tox (proximal duodenum; rat, Study No.1, 3 mg/kg/day): NAD
- GI Tox (proximal duodenum; rat, Study No.1, 10 mg/kg/day): NAD
- GI Tox (proximal duodenum; rat, Study No.1, 30 mg/kg/day): NAD
- drug-related duodenal changes (proximal duodenum; rats given ≤ 30 mg/kg): No drug-related duodenal changes
- microscopic evaluation of the proximal duodenum (proximal duodenum; rats, 100 mg/kg/day once daily for 4 days, 1 of 3 animals): slight goblet cell metaplasia
